Legend:
[1] = Water retention property and adherability with respect to healthy hair; design: species or system human
[2] = Water retention property and adherability with respect to damaged hair; design: species or system human; settings: concentration 50 wt % (Table 11)
[3] = tested on: Tyrosinase; test: Whitening effect: tyrosinase activity inhibition test; assay type: biochemical; settings: compound concentration 500 μg/mL; substrate D, L-DOPA; room temperature for a week
Description: With regard to a 50 wt/% aqueous solution of each of the compounds C46, C49 and C101, a whitening effect was confirmed via a tyrosinase activity inhibition test. Tyrosinase (by SIGMA-ALDRICH) was dissolved with a 67 mM phosphate buffer solution (pH 6.8) so that the concentration of the tyrosinase would be 0.2 mg/mL, thereby obtaining an enzyme solution. Further, a substrate solution was prepared by dissolving 3 mg of D, L-DOPA (by Tokyo Chemical Industry Co., Ltd.) into 10 mL of the 67 mM phosphate buffer solution. […] Next, 80 μL of the substrate solution was quickly added to the preincubated solution, and an absorbance (A1) at 475 nm immediately after the addition of the substrate solution was then measured. Further, after leaving this solution to stand still at room temperature for a week, an absorbance (A2) at 475 nm was again measured.
In addition, as a control, there were prepared samples containing an ultrapure water instead of the compounds of the working examples; and in a similar manner as above, there were measured an absorbance (A3) at 475 nm immediately after the addition of the substrate, and an absorbance (A4) at 475 nm after leaving the solution at room temperature for a week.
An inhibition rate was calculated with the following formula.

[4] = Water confinement property test (barrier property); assay type: physicochemical; settings: 80 wt % aqueous solution, 0.01 mL/cm^2 on filter paper, 40° C. and 25% RH, 24 hours
Description: Next, 20.0 g of an ion-exchange water was put into a 40 mL pierce vial bottle (by AS ONE Corporation.), followed by removing an inner lid (rubber plug) of the pierce vial bottle, placing on the pierce vial bottle the filter paper to which each sample had been applied, and then plugging the bottle with an outer lid.
Further, Wm1, Wm2, Sm1 and Sm2 in the formula below respectively represent the following numerical values.
Wm1: Weight of ion-exchange water in vial before storage (using filter paper to which only ion-exchange water had been applied)
Wm2: Weight of ion-exchange water in vial after 24 hours (using filter paper to which only ion-exchange water had been applied)
Sm1: Weight of ion-exchange water in vial before storage (using filter paper to which sample had been applied)
Sm2: Weight of ion-exchange water in vial after 24 hours (using filter paper to which sample had been applied)

[5] = Stability of ascorbic acid-based compound (coloration); assay type: physicochemical; design: key to Appearance (Visual evaluation) Immediately after preparatiom / Appearance (Visual evaluation) After 7 days 50° C. / Appearance (Visual evaluation) After 7 days Room temperature: ⊚: Colorless and transparent; ∘: Light yellow; Δ: Yellow; x: Brown to black; settings: 33 wt % aqueous solution
Description: With regard to a 33 wt/% aqueous solution of each of the compounds C46, C49 and C98 to C100 and water, a stability in an aqueous solution condition was visually evaluated. An evaluation method was such that there was prepared a 33 wt % aqueous solution of each of the compounds C46, C49 and C98 to C100, the aqueous solution was then left to stand still at room temperature or in a thermostatic bath of 50° C. for seven days; coloration before and after the still standing was visually confirmed. The evaluation criteria were as follows. • ⊚: Colorless and transparent • ∘: Light yellow • Δ: Yellow • x: Brown to black

[6] = Water retention property test 1; assay type: physicochemical; settings: 80 wt % aqueous solution
Description: A moisture rate after 24 hours was again measured (post-test moisture rate: B), followed by using the formula below to calculate a rate of reduction in moisture so as to evaluate the water retention property. • Pre-test moisture rate: A (%) • Post-test moisture rate: B (%)

[7] = Sensory evaluation on damaged hair after using organic ammonium salt; design: species or system human; settings: damaged hair, 80 wt % aqueous solution
Description: Here, an 80 wt % aqueous solution(s) of each of the compounds B11, B12, B23, B26 and B27 (content in terms of anhydride in the cases of the compounds B11, B12 and B23) were prepared and used as samples. Next, one minute was spent in evenly applying 10.0 g of each sample to a bundle of the damaged hairs weighing about 10 g, using a brush; the bundle of the damaged hairs was then left for 5 min. After leaving it for 5 min, the bundle of the damaged hairs was rinsed with a hot water of 40° C. for 30 sec, and evaluated was a finger-combing capability at the time of performing washing. The hair bundle that had been rinsed was then dried with a towel and further subjected to air drying for a day, followed by evaluating items such as elasticity/resilience (feeling by bare hands), cohesiveness, surface smoothness and non-waviness, from the perspective of superiority or inferiority to a test hair bundle(s) uncoated with the sample.

[8] = Affinity to hair (contact angle); settings: 50 wt % aqueous solution; condition B (hair iron, 160° C.)
[9] = Sensory evaluation on healthy hair after using organic ammonium salt; design: species or system human; key to When washing: Finger-combing capability: ⊚: Superior; ∘: Favorable; Δ: No change; x: Inferior; settings: healthy hair, 80 wt % aqueous solution
Description: Here, an 80 wt % aqueous solution(s) of each of the compounds B11, B12, B23, B26 and B27 (content in terms of anhydride in the cases of the compounds B11, B12 and B23) were prepared and used as samples. Next, one minute was spent in evenly applying 10.0 g of each sample to a bundle of the healthy hairs weighing about 10 g, using a brush; the bundle of the healthy hairs was then left for 5 min. After leaving it for 5 min, the bundle of the healthy hairs was rinsed with a hot water of 40° C. for 30 sec, and evaluated was a finger-combing capability at the time of performing washing. The hair bundle that had been rinsed was then dried with a towel and further subjected to air drying for a day, followed by evaluating items such as flexibility, finger-combing capability, texture, elasticity/resilience (feeling by bare hands), volume increase (visual evaluation), cohesiveness, moist feeling, surface smoothness, non-stickiness (feeling by bare hands) and gloss (visual evaluation), from the perspective of superiority or inferiority to a test hair bundle(s) uncoated with the sample.

SMILES: CC(O)C(=O)O (stereo not shown) [lactic acid, reference compound]
- Hair adhesion rate ([1]; healthy hair, concentration 50 wt % (Table 11)): 1.1%
- Hair adhesion rate [2]: 1.1%

SMILES: NC(CO)(CO)CO.O=C1OC(C(O)CO)C(O)=C1O (stereo not shown) [Compound C49]
- Tyrosinase activity inhibition rate [3]: 95.8%
- Water evaporation inhibition rate [4]: 32.19%
- Appearance (Visual evaluation) After 7 days 50° C. [5]: Δ
- Appearance (Visual evaluation) After 7 days Room temperature [5]: ○
- Appearance (Visual evaluation) Immediately after preparatiom [5]: ⊚
- Coloration of aqueous solution (stability) ([5]; room temperature or 50° C., seven days): significant improvements in coloration
- Water retention property test 1 Pre-test moisture rate [6]: 20.0%
- Water retention property test 1 Post-test moisture rate ([6]; 24 hours at 40° C. and 25% RH): 19.4%
- Water retention property test 1 Rate of reduction in moisture ([6]; 24 hours at 40° C. and 25% RH): 3.0%

SMILES: NC(CO)(CO)CO.O=C(O)CO [Compound B12]
- After air drying: Cohesiveness of hair [7]: ◯~Δ
- After air drying: Elasticity/Resilience [7]: ◯~Δ
- After air drying: Smoothness of hair surface [7]: ◯~Δ
- After air drying: Suppression of hair waviness [7]: ◯
- When washing: Finger-combing capability [7]: ◯~Δ
- Compound adhesion rate ([1]; healthy hair immersed 60 min in 80 wt % aqueous solution): 1.6%
- Post-test moisture rate ([1]; healthy hair immersed 60 min in 80 wt % aqueous solution, after 24 hours at 40° C., 35 to 40% RH, pre-test 7.6%): 5.4%
- Rate of reduction in moisture ([1]; healthy hair, 80 wt % aqueous solution, 24 hours at 40° C., 35 to 40% RH): 29%
- Contact angle of water droplet on treated hair [8]: infiltrated the hair
- After air drying: Cohesiveness of hair [9]: ◯~Δ
- After air drying: Elasticity/Resilience [9]: ◯~Δ
- After air drying: Finger-combing capability [9]: ◯~Δ
- After air drying: Flexibility [9]: ◯~Δ
- After air drying: Gloss of hair [9]: ◯~Δ
- After air drying: Moist feeling [9]: ◯~Δ
- After air drying: Non-stickiness of hair surface [9]: ◯~Δ
- After air drying: Smoothness of hair surface [9]: ◯~Δ
- After air drying: Texture [9]: ◯~Δ
- After air drying: Volume increase [9]: ◯~Δ
- When washing: Finger-combing capability ([9]; versus uncoated hair bundle): ⊚
